According to article PMC8636635 (Communications Biology, 2021):

Biological target: Protein 3a (Severe acute respiratory syndrome coronavirus 2, UniProt P0DTC3)
Experiment: two-electrode voltage clamp, X. laevis oocytes
Conditions: read-out: % block at 10 μM

Chain of Protein 3a (P0DTC3 whole entry): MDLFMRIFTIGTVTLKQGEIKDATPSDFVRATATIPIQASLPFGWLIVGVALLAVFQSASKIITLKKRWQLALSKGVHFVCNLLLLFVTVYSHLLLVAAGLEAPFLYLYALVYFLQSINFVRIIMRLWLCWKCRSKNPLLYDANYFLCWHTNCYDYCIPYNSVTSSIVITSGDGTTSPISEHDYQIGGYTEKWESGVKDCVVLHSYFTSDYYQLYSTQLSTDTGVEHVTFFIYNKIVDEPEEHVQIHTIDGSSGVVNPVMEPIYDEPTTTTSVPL

c1ccc2c(c1)Cc1ccccc1O2 [xanthene]
inhibition at 10 µM: 20%
